For 26 compounds, AC50 results are on record in ChEMBL document CHEMBL5291721, “A preclinical secondary pharmacology resource illuminates target-adverse drug reaction associations of marketed drugs” (Nat Commun, 2023).

As a reminder, the AC50 is the concentration at which the activity in the assay is half-maximal.

Assay [1] addresses T1, Alpha-1A adrenergic receptor (Homo sapiens, UniProt P35348).
T1 sequence (P35348 whole entry): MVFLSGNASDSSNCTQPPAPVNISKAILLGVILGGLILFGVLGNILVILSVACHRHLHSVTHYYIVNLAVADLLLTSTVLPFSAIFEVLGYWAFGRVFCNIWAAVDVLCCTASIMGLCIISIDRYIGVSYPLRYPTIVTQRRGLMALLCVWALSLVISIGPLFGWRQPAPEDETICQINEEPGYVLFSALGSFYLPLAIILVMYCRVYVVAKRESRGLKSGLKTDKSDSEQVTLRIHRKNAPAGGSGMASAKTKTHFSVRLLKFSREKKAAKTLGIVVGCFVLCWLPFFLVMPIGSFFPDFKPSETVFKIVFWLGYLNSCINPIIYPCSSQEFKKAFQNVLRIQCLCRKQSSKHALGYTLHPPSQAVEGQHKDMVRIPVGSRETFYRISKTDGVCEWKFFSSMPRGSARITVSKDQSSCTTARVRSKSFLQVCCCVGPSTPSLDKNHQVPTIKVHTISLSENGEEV

The target in assay [2] is Voltage-dependent N-type calcium channel subunit alpha-1B (Rattus norvegicus, UniProt Q02294). In kind it is functional.
Assay [3] addresses T2, Muscarinic acetylcholine receptor M1 (Homo sapiens, UniProt P11229).
T2 sequence (P11229 whole entry): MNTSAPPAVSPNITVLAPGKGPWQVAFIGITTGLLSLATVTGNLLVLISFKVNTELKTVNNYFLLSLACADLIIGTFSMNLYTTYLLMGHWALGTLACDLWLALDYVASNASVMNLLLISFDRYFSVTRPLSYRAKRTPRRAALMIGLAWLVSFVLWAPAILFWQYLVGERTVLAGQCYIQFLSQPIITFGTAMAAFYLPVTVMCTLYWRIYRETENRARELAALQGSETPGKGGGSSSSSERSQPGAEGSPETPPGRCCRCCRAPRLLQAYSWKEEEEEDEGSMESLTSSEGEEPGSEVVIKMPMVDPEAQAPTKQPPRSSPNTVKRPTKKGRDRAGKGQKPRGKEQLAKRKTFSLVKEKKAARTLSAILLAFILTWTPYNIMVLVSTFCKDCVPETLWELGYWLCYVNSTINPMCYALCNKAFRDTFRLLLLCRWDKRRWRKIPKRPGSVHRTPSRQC
It is filed as functional.

In assay [4] the target is T3, Muscarinic acetylcholine receptor M2 (Homo sapiens, UniProt P08172).
T3 sequence (P08172 whole entry): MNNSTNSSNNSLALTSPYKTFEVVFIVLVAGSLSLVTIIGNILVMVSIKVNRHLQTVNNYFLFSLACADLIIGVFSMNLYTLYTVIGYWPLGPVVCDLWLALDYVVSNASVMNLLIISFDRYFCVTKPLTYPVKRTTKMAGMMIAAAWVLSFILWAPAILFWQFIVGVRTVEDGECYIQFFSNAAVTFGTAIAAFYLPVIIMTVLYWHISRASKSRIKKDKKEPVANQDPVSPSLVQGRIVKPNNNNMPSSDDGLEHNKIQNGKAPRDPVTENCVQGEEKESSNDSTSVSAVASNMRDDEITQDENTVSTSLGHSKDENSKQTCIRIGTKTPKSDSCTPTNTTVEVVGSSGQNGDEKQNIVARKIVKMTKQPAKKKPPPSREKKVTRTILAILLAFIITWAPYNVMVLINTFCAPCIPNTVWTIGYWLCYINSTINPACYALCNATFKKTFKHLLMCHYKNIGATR

For the next assay, the target named is T4, Adenosine receptor A1 (Homo sapiens, UniProt P30542).
T4 sequence (P30542 whole entry): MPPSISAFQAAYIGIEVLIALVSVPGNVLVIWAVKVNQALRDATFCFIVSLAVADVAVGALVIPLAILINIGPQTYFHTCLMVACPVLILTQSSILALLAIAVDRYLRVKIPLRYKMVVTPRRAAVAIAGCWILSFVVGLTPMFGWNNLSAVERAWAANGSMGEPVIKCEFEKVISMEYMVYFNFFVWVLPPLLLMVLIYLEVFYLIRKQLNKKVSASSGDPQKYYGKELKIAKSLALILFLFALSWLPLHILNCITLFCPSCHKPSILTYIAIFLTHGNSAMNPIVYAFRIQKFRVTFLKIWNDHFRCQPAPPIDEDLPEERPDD

Assay [5] concerns the target T5, Endothelin receptor type B (Homo sapiens, UniProt P24530).
T5 sequence (P24530 whole entry): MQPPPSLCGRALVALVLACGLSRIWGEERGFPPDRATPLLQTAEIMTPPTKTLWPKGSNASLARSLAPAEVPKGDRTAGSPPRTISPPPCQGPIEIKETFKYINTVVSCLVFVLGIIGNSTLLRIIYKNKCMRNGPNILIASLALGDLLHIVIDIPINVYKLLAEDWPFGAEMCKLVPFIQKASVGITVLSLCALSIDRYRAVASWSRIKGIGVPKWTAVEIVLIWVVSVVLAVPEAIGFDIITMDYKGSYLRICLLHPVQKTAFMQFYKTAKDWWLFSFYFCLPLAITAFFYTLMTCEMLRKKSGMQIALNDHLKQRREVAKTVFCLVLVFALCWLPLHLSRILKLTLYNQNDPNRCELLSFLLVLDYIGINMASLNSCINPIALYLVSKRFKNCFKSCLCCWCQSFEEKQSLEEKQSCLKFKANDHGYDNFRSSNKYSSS

In assay [6] the target is 5-hydroxytryptamine receptor 2B (Homo sapiens, UniProt P41595).
Assay [7] deals with Gamma-aminobutyric acid receptor subunit alpha-1/alpha-2/beta-2/gamma-2 (Homo sapiens, UniProt P14867+P18507+P47869+P47870). It is filed as protein-complex assay.
Also: assay procedure not described here.

Chain of 5-hydroxytryptamine receptor 2B (P41595 whole entry): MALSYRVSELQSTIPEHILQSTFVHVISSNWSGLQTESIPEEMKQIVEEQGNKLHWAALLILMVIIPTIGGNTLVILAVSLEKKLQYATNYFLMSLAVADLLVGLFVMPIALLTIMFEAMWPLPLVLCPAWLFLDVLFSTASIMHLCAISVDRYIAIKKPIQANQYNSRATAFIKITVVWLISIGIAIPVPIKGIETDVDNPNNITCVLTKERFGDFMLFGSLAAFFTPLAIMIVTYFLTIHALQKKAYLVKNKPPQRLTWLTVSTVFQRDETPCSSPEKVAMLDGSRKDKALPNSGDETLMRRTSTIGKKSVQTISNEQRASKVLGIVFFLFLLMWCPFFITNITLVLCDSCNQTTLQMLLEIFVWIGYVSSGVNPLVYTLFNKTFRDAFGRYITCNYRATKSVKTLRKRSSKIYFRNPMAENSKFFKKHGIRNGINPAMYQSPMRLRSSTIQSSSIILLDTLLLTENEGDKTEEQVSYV
Chain of Voltage-dependent N-type calcium channel subunit alpha-1B (Q02294 whole entry): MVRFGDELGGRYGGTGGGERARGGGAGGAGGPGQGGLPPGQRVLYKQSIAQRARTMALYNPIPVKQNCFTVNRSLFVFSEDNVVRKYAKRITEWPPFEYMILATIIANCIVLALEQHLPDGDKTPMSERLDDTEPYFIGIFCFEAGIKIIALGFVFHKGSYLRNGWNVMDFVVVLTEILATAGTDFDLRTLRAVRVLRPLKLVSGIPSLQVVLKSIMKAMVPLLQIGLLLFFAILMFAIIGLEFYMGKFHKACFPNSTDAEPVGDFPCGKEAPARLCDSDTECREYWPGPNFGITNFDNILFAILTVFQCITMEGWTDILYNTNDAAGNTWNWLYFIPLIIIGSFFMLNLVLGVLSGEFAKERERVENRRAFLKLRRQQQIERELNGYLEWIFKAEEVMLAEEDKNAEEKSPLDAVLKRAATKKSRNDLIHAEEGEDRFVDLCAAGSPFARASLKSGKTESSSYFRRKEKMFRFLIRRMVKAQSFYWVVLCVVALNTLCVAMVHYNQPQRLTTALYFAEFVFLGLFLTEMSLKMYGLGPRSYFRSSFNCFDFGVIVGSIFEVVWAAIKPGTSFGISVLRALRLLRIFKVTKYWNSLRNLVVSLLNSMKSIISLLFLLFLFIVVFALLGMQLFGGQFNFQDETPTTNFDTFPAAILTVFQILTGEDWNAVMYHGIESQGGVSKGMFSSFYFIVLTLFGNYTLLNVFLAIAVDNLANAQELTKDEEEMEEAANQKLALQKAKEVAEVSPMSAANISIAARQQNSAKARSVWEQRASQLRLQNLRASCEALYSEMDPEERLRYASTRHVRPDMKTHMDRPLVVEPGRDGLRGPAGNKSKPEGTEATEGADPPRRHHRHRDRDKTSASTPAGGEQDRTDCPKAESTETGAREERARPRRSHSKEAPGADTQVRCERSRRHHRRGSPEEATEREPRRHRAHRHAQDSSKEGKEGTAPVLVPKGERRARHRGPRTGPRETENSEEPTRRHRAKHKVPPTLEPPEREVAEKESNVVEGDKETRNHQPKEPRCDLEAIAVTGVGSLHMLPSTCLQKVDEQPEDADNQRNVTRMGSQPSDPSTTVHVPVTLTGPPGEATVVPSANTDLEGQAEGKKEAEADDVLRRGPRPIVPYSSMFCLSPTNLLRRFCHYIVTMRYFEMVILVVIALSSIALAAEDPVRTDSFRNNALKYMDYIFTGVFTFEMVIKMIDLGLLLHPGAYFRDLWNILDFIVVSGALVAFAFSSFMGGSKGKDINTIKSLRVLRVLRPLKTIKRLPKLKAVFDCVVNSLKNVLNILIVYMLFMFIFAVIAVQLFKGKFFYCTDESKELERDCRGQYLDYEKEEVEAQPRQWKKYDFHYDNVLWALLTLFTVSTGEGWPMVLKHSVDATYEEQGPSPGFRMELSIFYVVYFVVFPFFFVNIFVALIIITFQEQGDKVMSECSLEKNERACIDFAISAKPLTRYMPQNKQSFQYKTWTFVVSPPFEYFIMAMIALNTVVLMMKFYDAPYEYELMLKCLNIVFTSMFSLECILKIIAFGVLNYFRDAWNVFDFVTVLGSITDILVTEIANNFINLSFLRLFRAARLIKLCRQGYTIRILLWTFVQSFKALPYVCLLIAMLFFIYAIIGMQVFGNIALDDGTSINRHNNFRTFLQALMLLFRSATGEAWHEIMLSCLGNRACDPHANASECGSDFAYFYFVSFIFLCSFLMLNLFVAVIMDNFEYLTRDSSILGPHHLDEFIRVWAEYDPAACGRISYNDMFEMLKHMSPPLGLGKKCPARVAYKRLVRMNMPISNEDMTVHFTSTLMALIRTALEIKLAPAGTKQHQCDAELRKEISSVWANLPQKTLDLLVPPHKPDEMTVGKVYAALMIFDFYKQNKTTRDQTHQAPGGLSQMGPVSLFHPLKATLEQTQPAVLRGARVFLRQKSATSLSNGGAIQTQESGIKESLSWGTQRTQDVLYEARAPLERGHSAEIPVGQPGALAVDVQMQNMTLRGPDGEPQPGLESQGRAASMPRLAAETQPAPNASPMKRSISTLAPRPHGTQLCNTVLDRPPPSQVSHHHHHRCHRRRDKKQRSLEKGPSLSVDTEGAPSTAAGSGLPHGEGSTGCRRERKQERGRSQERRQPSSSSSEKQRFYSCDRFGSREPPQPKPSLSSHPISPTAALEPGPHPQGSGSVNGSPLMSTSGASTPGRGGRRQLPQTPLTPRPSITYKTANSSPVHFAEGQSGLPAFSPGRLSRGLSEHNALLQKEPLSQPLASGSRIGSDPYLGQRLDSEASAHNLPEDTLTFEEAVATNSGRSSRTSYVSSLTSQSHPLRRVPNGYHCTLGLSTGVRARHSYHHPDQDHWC
Chain of Gamma-aminobutyric acid receptor subunit alpha-1/alpha-2/beta-2/gamma-2 (P14867 whole entry): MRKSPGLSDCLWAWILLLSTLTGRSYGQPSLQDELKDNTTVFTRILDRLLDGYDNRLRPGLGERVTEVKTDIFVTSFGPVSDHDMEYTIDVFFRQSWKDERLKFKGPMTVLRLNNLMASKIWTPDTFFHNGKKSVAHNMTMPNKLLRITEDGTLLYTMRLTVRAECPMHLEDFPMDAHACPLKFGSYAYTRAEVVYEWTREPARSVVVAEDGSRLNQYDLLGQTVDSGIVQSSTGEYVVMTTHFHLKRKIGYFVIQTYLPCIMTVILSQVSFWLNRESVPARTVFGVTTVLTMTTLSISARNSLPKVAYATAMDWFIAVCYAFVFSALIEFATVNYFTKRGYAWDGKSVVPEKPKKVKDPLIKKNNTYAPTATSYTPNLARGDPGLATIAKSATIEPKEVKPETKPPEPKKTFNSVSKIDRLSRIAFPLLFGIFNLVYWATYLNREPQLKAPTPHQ
Chain of Gamma-aminobutyric acid receptor subunit alpha-1/alpha-2/beta-2/gamma-2 (P47870 whole entry): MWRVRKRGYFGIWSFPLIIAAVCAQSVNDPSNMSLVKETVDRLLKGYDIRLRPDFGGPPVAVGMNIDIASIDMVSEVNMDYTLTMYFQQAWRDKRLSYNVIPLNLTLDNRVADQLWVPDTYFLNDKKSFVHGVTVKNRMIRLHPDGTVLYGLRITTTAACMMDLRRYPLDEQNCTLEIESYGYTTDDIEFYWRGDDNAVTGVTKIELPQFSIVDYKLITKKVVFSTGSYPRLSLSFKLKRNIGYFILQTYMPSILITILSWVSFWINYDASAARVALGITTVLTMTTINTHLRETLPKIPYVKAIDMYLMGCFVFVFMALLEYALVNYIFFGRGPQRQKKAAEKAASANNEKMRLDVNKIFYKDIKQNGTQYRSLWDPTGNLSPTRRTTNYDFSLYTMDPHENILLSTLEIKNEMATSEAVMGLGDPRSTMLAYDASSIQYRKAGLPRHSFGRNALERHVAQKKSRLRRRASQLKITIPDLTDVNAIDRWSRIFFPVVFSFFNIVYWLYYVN
Chain of Gamma-aminobutyric acid receptor subunit alpha-1/alpha-2/beta-2/gamma-2 (P18507 whole entry): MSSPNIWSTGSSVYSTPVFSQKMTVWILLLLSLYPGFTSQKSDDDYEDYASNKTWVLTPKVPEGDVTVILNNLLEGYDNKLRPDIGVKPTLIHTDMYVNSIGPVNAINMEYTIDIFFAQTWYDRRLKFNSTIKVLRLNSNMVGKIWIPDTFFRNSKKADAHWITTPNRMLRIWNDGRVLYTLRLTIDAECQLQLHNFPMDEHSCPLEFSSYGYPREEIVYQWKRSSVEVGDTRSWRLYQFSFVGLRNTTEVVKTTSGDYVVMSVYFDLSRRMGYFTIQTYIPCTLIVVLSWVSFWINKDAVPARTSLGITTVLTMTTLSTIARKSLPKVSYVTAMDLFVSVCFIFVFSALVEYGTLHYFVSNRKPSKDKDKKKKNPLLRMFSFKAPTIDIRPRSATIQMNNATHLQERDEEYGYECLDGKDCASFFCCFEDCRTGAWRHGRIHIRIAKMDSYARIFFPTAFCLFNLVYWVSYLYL
Chain of Gamma-aminobutyric acid receptor subunit alpha-1/alpha-2/beta-2/gamma-2 (P47869 whole entry): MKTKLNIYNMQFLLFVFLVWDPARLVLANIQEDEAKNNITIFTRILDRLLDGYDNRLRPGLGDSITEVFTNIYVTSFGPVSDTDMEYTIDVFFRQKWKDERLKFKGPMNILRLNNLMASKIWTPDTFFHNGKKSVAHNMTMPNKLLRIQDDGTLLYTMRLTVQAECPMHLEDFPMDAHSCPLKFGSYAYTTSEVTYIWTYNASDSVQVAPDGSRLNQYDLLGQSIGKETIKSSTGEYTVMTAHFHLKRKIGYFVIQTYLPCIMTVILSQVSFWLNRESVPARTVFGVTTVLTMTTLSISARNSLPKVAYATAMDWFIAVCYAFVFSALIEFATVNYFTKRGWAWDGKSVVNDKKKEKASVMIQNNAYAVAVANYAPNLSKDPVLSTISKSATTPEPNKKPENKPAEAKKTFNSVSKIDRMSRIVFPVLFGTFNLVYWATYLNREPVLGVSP

Turning to `CCCN(CCC)C(=O)Cc1c(-c2ccc(Cl)cc2)nc2ccc(Cl)cn12` [ALPIDEM], the AC50 was more than 30 µM in assay [1]; more than 10 µM in assay [2]; more than 30 µM in assay [3]; more than 10 µM in assay [4]; 14.4 µM on Adenosine receptor A1; more than 10 µM in assay [5]. Further, the AC50 in assay [6] is more than 10 µM.
For the compound `COc1ccccc1Oc1c(NS(=O)(=O)c2ccc(C(C)(C)C)cc2)nc(-c2ncccn2)nc1OCCO` [BOSENTAN], the AC50 in assay [1], in assay [2], in assay [3], in assay [4] and in assay [6] was more than 10 µM each time.
Regarding `C/C=C/C/C=C/CCC(=O)[C@H]1O[C@H]1C(N)=O` [CERULENIN], on Adenosine receptor A1, the AC50 is more than 30 µM.
On to `CC(C)N(CCC(C(N)=O)(c1ccccc1)c1ccccn1)C(C)C` (stereo unspecified) [DISOPYRAMIDE], for which the AC50 is more than 10 µM in assay [1], more than 10 µM in assay [2], more than 10 µM in assay [3] and more than 30 µM in assay [5].
For `C[C@H]1c2cccc(O)c2C(=O)C2=C(O)[C@]3(O)C(=O)C(C(N)=O)=C(O)[C@@H](N(C)C)[C@@H]3[C@@H](O)[C@@H]21` [DOXYCYCLINE], the AC50 in assay [1] is 3.4 µM; in assay [2], more than 10 µM; in assay [4], more than 10 µM; in assay [5], more than 30 µM; in assay [6], more than 10 µM.
Take `CC(C)(O)CNc1nc(Nc2ccnc(C(F)(F)F)c2)nc(-c2cccc(C(F)(F)F)n2)n1` [ENASIDENIB]: the AC50 was 1.29 µM at Adenosine receptor A1 and more than 30 µM in assay [7].
Consider `C#C[C@]1(O)CC[C@H]2[C@@H]3CCC4=CC(=O)CC[C@@H]4[C@H]3C(=C)C[C@@]21CC` [ETONOGESTREL], for which the AC50 (in assay [3]; on Adenosine receptor A1) was more than 30 µM in each case.
For the compound `CCc1nc(C(N)=O)c(Nc2ccc(N3CCC(N4CCN(C)CC4)CC3)c(OC)c2)nc1NC1CCOCC1` [GILTERITINIB], at Adenosine receptor A1, the AC50 is more than 30 µM.
On the same count and under the same terms, next, `O=C(O)CO` [GLYCOLIC ACID]: more than 30 µM.
On to `CC(C)Cc1ccc(C(C)C(=O)O)cc1` (stereo unspecified) [IBUPROFEN], for which the AC50 in assay [1] was more than 10 µM; in assay [2], more than 10 µM; in assay [4] it was more than 10 µM; in assay [5], more than 30 µM; in assay [6], more than 10 µM; in assay [7], more than 30 µM.
For `CN(CC1(C)CCCO1)S(=O)(=O)c1ccc(Cl)c(S(N)(=O)=O)c1` (stereo unspecified) [MEFRUSIDE], the AC50 (in assay [3]; on Adenosine receptor A1) was more than 30 µM throughout.
As to `CC(=O)O[C@]1(C(C)=O)CC[C@H]2[C@@H]3C=C(C)C4=CC(=O)CC[C@@H]4[C@H]3CC[C@@]21C` [NOMEGESTROL ACETATE], the AC50 (in assay [3]; on Adenosine receptor A1) was more than 30 µM in each case.
As for `CCOC(=O)c1c(C)cc2c(CO)n[nH]c(=O)c2c1C` [OXAGRELATE], the AC50 at Adenosine receptor A1 came out at 25.9 µM.
Consider `N#Cc1ccc2c(c1)N(CCCN1CCC(O)CC1)c1ccccc1S2` [PERICIAZINE], for which, on Adenosine receptor A1, the AC50 was more than 30 µM.
As to `FC(F)(F)c1ccc(CNc2ccc(Cc3c[nH]c4ncc(Cl)cc34)cn2)cn1` [PEXIDARTINIB], the figures for the AC50 (at Adenosine receptor A1; in assay [7]) were 27.7 µM and more than 3 µM, respectively.
Consider `CN1C(C(=O)Nc2ccccn2)=C(O)c2ccccc2S1(=O)=O` [PIROXICAM], for which the AC50 (in assay [1]; at Adenosine receptor A1) was more than 30 µM throughout.
In the case of `CO[C@H]1/C=C/O[C@@]2(C)Oc3c(C)c(O)c4c(O)c(c(/C=N/N5CCN(C)CC5)c(O)c4c3C2=O)NC(=O)/C(C)=C\C=C\[C@H](C)[C@H](O)[C@@H](C)[C@@H](O)[C@@H](C)[C@H](OC(C)=O)[C@@H]1C` [RIFAMPIN], the AC50 in assay [1] is 2.33 µM; in assay [2], more than 10 µM; in assay [5], more than 30 µM; in assay [6], more than 10 µM.
As for `CN(C)CCc1c[nH]c2ccc(Cn3cncn3)cc12` [RIZATRIPTAN], the AC50 in assay [1] was more than 10 µM; in assay [2], more than 10 µM; in assay [3], more than 30 µM; in assay [4] it was more than 10 µM; in assay [5], more than 30 µM; in assay [6], 12 µM.
Consider `CC[C@@]1(O)C(=O)OCc2c1cc1n(c2=O)Cc2cc3c([N+](=O)[O-])cccc3nc2-1` [RUBITECAN], for which the AC50 at Adenosine receptor A1 is more than 30 µM.
The same measure, in the same setting: to `OC[C@@H](O)[C@@H](O)[C@H](O)[C@@H](O)CO` [SORBITOL] belongs more than 30 µM.
For the compound `Nc1ccc(S(=O)(=O)Nc2nccs2)cc1` [SULFATHIAZOLE], the AC50 is 5.1 µM in assay [1]; more than 10 µM in assay [2]; more than 10 µM in assay [4]; more than 30 µM in assay [5]; more than 10 µM in assay [6].
For `CCN(CC)CCNC(=O)c1c(C)[nH]c(/C=C2\C(=O)Nc3ccc(F)cc32)c1C` [SUNITINIB], the AC50 stood at 7.19 µM in assay [4] and 0.158 µM in assay [6].
`CC[C@H]1OC(=O)[C@H](C)C(=O)[C@H](C)[C@@H](O[C@@H]2O[C@H](C)C[C@H](N(C)C)[C@H]2O)[C@](C)(OC)C[C@@H](C)C(=O)[C@H](C)[C@H]2N(CCCCn3cnc(-c4cccnc4)c3)C(=O)O[C@]12C` [TELITHROMYCIN]: the AC50 (on Adenosine receptor A1; in assay [7]) was more than 30 µM throughout.
Take `COc1cc2nc(N3CCN(C(=O)C4CCCO4)CC3)nc(N)c2cc1OC` (stereo unspecified) [TERAZOSIN]: the AC50 in assay [2] was more than 10 µM; in assay [4], more than 10 µM; on Adenosine receptor A1 it was more than 30 µM; in assay [5], more than 30 µM; in assay [6] it was more than 10 µM.
At Adenosine receptor A1, `CC(=O)Oc1cc(C(F)(F)F)ccc1C(=O)O` [TRIFLUSAL] displayed an AC50 of more than 30 µM.
As to `CCCC(CCC)C(=O)O` [VALPROIC ACID], the AC50 in assay [2] was more than 10 µM; in assay [4], more than 10 µM; on Adenosine receptor A1 it was more than 30 µM; in assay [5], more than 30 µM; in assay [6], more than 10 µM.
